With `CC(C)(C)c1cc(C(=O)COc2ccc(C(=O)O)c(O)c2)cc(C(C)(C)C)c1O`, the melting point lay within 164 to 165 °C.
`CCSc1cccc2c1CC(=O)N2` displayed a melting point of 143 to 144 °C.
Molecule `Cc1cccc(C)c1NC(=O)CC1CCN(CCC2CCOc3ccccc32)CC1` (centres undefined) registered a melting point of 136 °C.
In the case of `CCOC(=O)c1c(Br)c2cc(OCc3ccccc3)ccc2n1C`, the melting point lay in the range of 125 to 127 °C.
For `CCCCC[C@@H](CNC(=O)Nc1c(OC(C)C)c(C)nn1C)c1cccc2c1OCO2` the value was 123 to 124 °C; for `CC(C)(C)OC(=O)CC[C@H](NC(=O)c1ccc(N(CCCl)CCCl)cc1F)C(=O)OC(C)(C)C`, 90 to 92 °C; for `Oc1ccc(-c2nc3cc(O)cc(Br)c3o2)c(C(F)(F)F)c1`, 183 to 185 °C.
In the case of `CCCCOc1ncc(I)cc1C(N)=S`, the melting point fell in the range of 140 to 148 °C.
`COc1cc(C#N)ccc1-c1nc2cc(Cl)c(Cl)cc2[nH]1` showed a melting point of over 250 °C.
Consider `O=C(O)c1ccc(OCc2cccc(Cl)c2)cn1`, for which the melting point was 176 to 177 °C.
`O=c1[nH]c2cc(Cl)cc(Cl)c2oc1=O` displayed a melting point of 312 °C.
As to `CSC(=NCC(C)C)Nc1cc(Cl)cc(Cl)c1`, the melting point was 150 °C.
On to `Cc1c(OCC(F)(F)C(F)F)ccnc1CO`, for which the melting point lay in the range of 67 to 68 °C.
In the case of `CCOC(=O)C1=C(COCC(C)(O)c2ccco2)NC(C)=C(C(=O)OC)C1c1cccc(Cl)c1Cl` (centres undefined), the melting point was 88 to 90 °C.
`Cc1cc(-c2cc3cc(OCCNC[C@H](O)COc4ccccc4F)ccc3o2)no1` gave a melting point of 118 to 121 °C.
`O=[N+]([O-])c1ccc(Oc2ccc(Oc3ccc([N+](=O)[O-])c(O)c3)cc2)cc1O`: the melting point was in the range of 242 to 245 °C.
`Cc1onc(NS(=O)(=O)c2ccccc2-c2ccc(-c3ncco3)cc2Cn2ccc(C(F)(F)F)n2)c1C` had a melting point of 89 to 99 °C.
On to `CC(C)(C)c1ccc(OCCC(=O)O)c(C(C)(C)C)c1`, for which the melting point fell in the range of 105 to 106 °C.
For `COc1cc(OC)c(OC)cc1CN[C@@H](C(=O)O)[C@H](O)[C@H](Cc1ccccc1)NC(=O)OC(C)(C)C` the value was 206 °C.
On to `Clc1ccc(C2(CCBr)OCC(c3ccc(Cl)cc3Cl)O2)cc1` (centres undefined), for which the melting point came to 82.7 °C.
For `CCCCCCCCCCCCOP(=O)(CC(=O)Nc1c(C(C)C)cccc1C(C)C)c1ccccc1` (centres undefined) the value was 66 to 68 °C; for `CCOC(=O)CCCCCCC(NC(N)=O)C(=O)OCC` (centres undefined), 79 to 80 °C.
Regarding `O=C(CN1CCN(CC2CCn3c(nc4ccccc43)S2)CC1)N1CCCC1` (centres undefined), the melting point fell in the range of 159 to 162 °C.
For `Cn1cc(C(N)=O)c(Nc2ccc(Cl)c(Cl)c2)cc1=O` the value was over 250 °C; for `CON=C1C(c2ccccc2)=C(c2ccc(S(C)(=O)=O)cc2)C1(C)C`, 146 to 147 °C.
In turn, `CCOc1cc(N)c(Cl)cc1C(=O)NC1CCN(CC2CCN(C(=O)CCOC)CC2)CC1` came in with a melting point of 175 to 177 °C.
Molecule `COc1cc2oc(=O)c3c(c2cc1OC)CCNC3` registered a melting point of 186 to 188 °C.
As for `CCOC(=O)Nc1c(Cl)cc(OC)c(OC)c1C(=O)OCC`, the melting point is 111 to 113 °C.
In turn, `CCCCOc1cccc(OCCBr)c1` gave a melting point of 32 to 34 °C.
`Fc1ccc(-c2nnc(Cl)cc2Cl)cc1`: the melting point was in the range of 124 to 127 °C.
As for `CO[C@@H]1CN(CCCn2nc(Cl)ccc2=O)CC[C@@H]1NC(=O)c1cc(Cl)c(N)c2c1OCCC2` (relative stereo), the melting point amounted to 150 °C.
For `COC(=O)C1CCc2onc(-c3ccc(Cl)cc3)c2CC1` (centres undefined) the value was 70 to 71 °C; for `OC1(c2ccc(OCc3ccccc3)c(OCc3ccccc3)c2)CCCN(Cc2ccccc2)C1` (centres undefined), 80 °C.
In the case of `CC(C)c1cc(S(=O)(=O)C(C)C)c(C(C)C)cc1C#N`, the melting point lay within 130 to 134 °C.
Regarding `O=C1N=c2ccc(OCCN3CC=C(Cc4ccccc4)CC3)cc2=N1`, the melting point fell in the range of 202 to 203 °C.
The molecule `O=c1[nH]c2ccc(O)cc2c(=O)n1CCN1CCC(c2c[nH]c3ccccc23)CC1` returned a melting point of 258 °C.
In turn, `O=C(CCc1cccnc1)NCCCCC1CCN(P(=O)(c2ccccc2)c2ccccc2)CC1` had a melting point of 134 to 135 °C.
In the case of `CCOC(=O)/C=C/c1ccc(OCCOC)cc1OCc1nc(-c2ccccc2)oc1C`, the melting point is 109 to 110 °C.
`Cc1ccoc1C(=O)Nc1ccc(-n2nc(C(F)(F)F)cc2C(F)(F)F)cc1` came in with a melting point of 119 to 120 °C.
The molecule `COC1=CC(=O)C2CC(O[Si](C)(C)C)=CC(OC)C2C1=O` (centres undefined) displayed a melting point of 108 to 110 °C.
`Cn1nnnc1NCCSCc1csc(NC(=N)N)n1` displayed a melting point of 80 to 83 °C.
In the case of `O=C1CN2Cc3c(O)cccc3N=C2N1`, the melting point is over 280 °C.
For `CC(Oc1ccnc2ccccc12)C(=O)Nc1ccc(Cl)cc1` (centres undefined) the value was 170 to 172 °C; for `Oc1ccc(-c2cccc(OC3SCC(O)C(O)C3O)c2)cn1` (centres undefined), 200 °C.
For `COc1cccc2cc(C(=O)Oc3ccc(Cl)cn3)c(=O)oc12`, the melting point was 203 to 204 °C.
Consider `CCCCCS(=O)(=O)NC(=O)CCc1cc(OC(C)C)nn1Cc1ccc(C(F)(F)F)cc1Cl`, for which the melting point is 147 to 149 °C.
Regarding `CCn1ncc(C(=O)c2ccc(S(C)(=O)=O)cc2Cl)c1O`, the melting point fell in the range of 172 to 175 °C.
For `O=C(O)c1cc(=O)cc(C=Cc2ccccc2)o1` the value was 227 to 228 °C; for `Nc1sc2c(c1C(=O)c1cc3ccccc3o1)CCCC2`, 86 to 89 °C; for `CCCCN(Cc1ccc(-c2ccccc2-c2nc(=O)o[nH]2)cc1)c1ncccc1C(=O)O`, 95 to 98 °C.
For `COc1ccc(C=CCN2CCc3nc(N)sc3CC2)cc1OC` the value was 122 to 126 °C; for `CCN(CC)CCOc1ccc(Nc2ncc3c(n2)N(c2cccc(CCO)c2)C(=O)N(c2ccccc2Br)C3)cc1`, 98 °C; for `CCCCCCCOC(=O)C(=C1NCCCS1)[N+](=O)[O-]`, 59 to 60 °C.
`CCNC(=O)c1ccc(N2CCN(Cc3cc(Cc4ccccc4)c4c(c3)NC(=O)C(C)O4)CC2)cc1` (centres undefined) gave a melting point of 198 to 206 °C.
In turn, `O=C(Nc1ccc(-n2nc(C(F)(F)F)cc2C(F)(F)F)cc1)c1c(F)ccc([N+](=O)[O-])c1F` had a melting point of 187 to 189 °C.
`CC1Oc2cc3nc(SCc4ccccn4)[nH]c3cc2O1` yielded a melting point of 155 to 156 °C.
For `O=C(O)c1ccc2c(c1)S(=O)(=O)c1ccccc1NC2` the value was 304 to 306 °C.
`CCCCCON=C(C(=O)OCC)c1csc(N)n1` registered a melting point of 86 to 88 °C.
`CC(C)C1(C)N=C(c2nc3ccc(OC(F)F)cc3cc2C(=O)O)NC1=O` (centres undefined) gave a melting point of 208 to 209 °C.
For `Cc1cccc(-c2ccc([N+](=O)[O-])cc2)c1` the value was 59 to 60 °C; for `CCCN=C(N)Nc1ccnc(CCCCC(N)=O)n1`, 212 to 214 °C.
As for `FC(F)(F)C1(c2cc(Cl)cc(Cl)c2)CC(c2ccc(-c3cn[nH]c3)c3ccccc23)=NO1` (centres undefined), the melting point fell in the range of 117 to 120 °C.
As to `Nc1c(F)c(F)cc2c1c(=O)c(C(=O)O)cn2C1COC1`, the melting point was over 300 °C.
For `Cc1ccc(C(N)=O)cc1F` the value was 161 to 163 °C.

Values taken from a melting point compilation (Tetko et al.; mined from patent text by program, amines drawn as free bases though some values may be those of a salt).
